Where two headings read alike, the source gives them in different places.
Tests used:
[1] = cited from earlier work
[2] = below 85% relative humidity; cited from earlier work
[3] = Stability studies of the prepared FMC (storage, HPLC); assay type: physicochemical
Description: The purity of famciclovir was analyzed by HPLC under the following conditions: […]

[4] = 1 month, 25° C., 75% relative humidity
[5] = 1 month, 40° C., 75% relative humidity
[6] = 1 month, 55° C., 75% relative humidity
[7] = 2 month, 25° C., 75% relative humidity
[8] = 2 month, 40° C., 75% relative humidity
[9] = 2 month, 55° C., 75% relative humidity
[10] = 3 months, 25° C., 75% relative humidity
[11] = 3 months, 40° C., 75% relative humidity
[12] = 3 months, 55° C., 75% relative humidity
[13] = 5 months, 25° C., 75% relative humidity
[14] = 6 months, 25° C., 75% relative humidity
[15] = 6 months, 40° C., 75% relative humidity
[16] = 6 months, 55° C., 75% relative humidity

Substance: 2-[2-(2-amino-9H-purin-9-yl)ethyl]-1,3-propane diacetate [famciclovir]
- partition coefficient P ([1]; octanol/phosphate buffer (pH 7.4)): 2.08
- partition coefficient P ([1]; octanol/water (pH 4.8)): 1.09
- hygroscopicity [2]: not hydroscopic
- Any, % [3, 4]: 0.00%
- Total, % [3, 4]: 0.00%
- Any, % [3, 5]: 0.00%
- Total, % [3, 5]: 0.00%
- Any, % [3, 6]: 0.00%
- Total, % [3, 6]: 0.00%
- Any, % [3, 7]: 0.00%
- Total, % [3, 7]: 0.00%
- Any, % [3, 8]: 0.06%
- Appear. [3, 8]: White
- MH-FMC RRT 0.51 (%) [3, 8]: 0.06%
- RRT 0.80 (%) [3, 8]: <0.01%
- RRT 0.87 (%) [3, 8]: <0.01%
- RRT 0.89 (%) [3, 8]: 0.01%
- RRT 1.10 (%) [3, 8]: <0.01%
- RRT 1.27 (%) [3, 8]: <0.01%
- RRT 1.35 (%) [3, 8]: <0.01%
- RRT 1.74 (%) [3, 8]: <0.01%
- Total, % [3, 8]: 0.07%
- Any, % [3, 9]: 0.07%
- Appear. [3, 9]: White
- MH-FMC RRT 0.51 (%) [3, 9]: 0.07%
- RRT 0.80 (%) [3, 9]: <0.01%
- RRT 0.87 (%) [3, 9]: <0.01%
- RRT 0.89 (%) [3, 9]: 0.01%
- RRT 1.10 (%) [3, 9]: <0.01%
- RRT 1.27 (%) [3, 9]: <0.01%
- RRT 1.35 (%) [3, 9]: <0.01%
- RRT 1.74 (%) [3, 9]: <0.01%
- Total, % [3, 9]: 0.08%
- Any, % [3, 10]: 0.00%
- Total, % [3, 10]: 0.00%
- Any, % [3, 11]: 0.06%
- Appear. [3, 11]: White
- MH-FMC RRT 0.51 (%) [3, 11]: 0.06%
- RRT 0.80 (%) [3, 11]: <0.01%
- RRT 0.87 (%) [3, 11]: <0.01%
- RRT 0.89 (%) [3, 11]: 0.01%
- RRT 1.10 (%) [3, 11]: <0.01%
- RRT 1.27 (%) [3, 11]: <0.01%
- RRT 1.35 (%) [3, 11]: <0.01%
- RRT 1.74 (%) [3, 11]: <0.01%
- Total, % [3, 11]: 0.07%
- Any, % [3, 12]: 0.06%
- Appear. [3, 12]: White
- MH-FMC RRT 0.51 (%) [3, 12]: 0.06%
- RRT 0.80 (%) [3, 12]: <0.01%
- RRT 0.87 (%) [3, 12]: <0.01%
- RRT 0.89 (%) [3, 12]: 0.01%
- RRT 1.10 (%) [3, 12]: <0.01%
- RRT 1.27 (%) [3, 12]: <0.01%
- RRT 1.35 (%) [3, 12]: <0.01%
- RRT 1.74 (%) [3, 12]: <0.01%
- Total, % [3, 12]: 0.07%
- Any, % [3, 13]: 0.06%
- Appear. [3, 13]: White
- MH-FMC RRT 0.51 (%) [3, 13]: 0.06%
- RRT 0.80 (%) [3, 13]: 0.01%
- RRT 0.87 (%) [3, 13]: 0.02%
- RRT 0.89 (%) [3, 13]: 0.01%
- RRT 1.10 (%) [3, 13]: 0.01%
- RRT 1.27 (%) [3, 13]: 0.01%
- RRT 1.35 (%) [3, 13]: 0.01%
- RRT 1.74 (%) [3, 13]: 0.01%
- Total, % [3, 13]: 0.14%
- Any, % [3, 14]: 0.06%
- MH-FMC RRT 0.51 (%) [3, 14]: 0.06%
- RRT 0.80 (%) [3, 14]: 0.01%
- RRT 0.87 (%) [3, 14]: 0.01%
- RRT 1.27 (%) [3, 14]: 0.01%
- Total, % [3, 14]: 0.09%
- Any, % [3, 15]: 0.06%
- MH-FMC RRT 0.51 (%) [3, 15]: 0.06%
- RRT 0.80 (%) [3, 15]: 0.01%
- RRT 0.87 (%) [3, 15]: 0.01%
- RRT 1.27 (%) [3, 15]: 0.01%
- Total, % [3, 15]: 0.09%
- Any, % [3, 16]: 0.06%
- MH-FMC RRT 0.51 (%) [3, 16]: 0.06%
- RRT 0.80 (%) [3, 16]: 0.01%
- RRT 0.87 (%) [3, 16]: 0.01%
- RRT 1.27 (%) [3, 16]: 0.01%
- Total, % [3, 16]: 0.09%
- monohydroxy impurity content upon storage ([3]; at least 6 months at 25° C., 40° C. or 55° C. and 75% relative humidity): does not increase
- Any, % ([3]; start): 0.00%
- Total, % ([3]; start): 0.00%

Source: US20040266795A1 (priority 2003, published 2004)
